Data: patent US8232401B2 (Japan Tobacco Inc., priority 2002, dated 2012)
pIC50: −log10 of the molar value.

Biological target: T1, HIV integrase (Human immunodeficiency virus type 1 group M subtype B, UniProt P12497, F1332H)
T1 construct: HIV integrase full length gene; made in house; host or cells: Escherichia coli BL21(DE3)
Experiment: Determination of enzyme (HIV integrase) inhibitory activity (strand transfer, microtiter plate, absorbance at 450 nm)
Type: biochemical, HIV (Human Immunodeficiency Virus (type 1))
Conditions: recombinant HIV integrase (F185H) expressed in E. coli; donor DNA on streptavidin plate, digoxigenin target DNA; 37° C.
Protocol: The following explains evaluation methods of the HIV integrase inhibitory activity of the compound of the present invention.
(i) Construction of Recombinant Integrase Gene Expression System
(ii) Production and Purification of Integrase Protein
Escherichia coli recombinant BL21(DE3) transformed with plasmid pET21a-IN-F185H obtained in (i) was shake cultured at 30° C. in a liquid medium containing ampicillin. When the culture reached the logarithmic growth phase, isopropyl-β-D-thiogalactopyranoside was added to promote expression of integrase gene. The culture was continued for 3 hrs to promote accumulation of the integrase protein. The recombinant E. coli was collected in pellets by centrifugal separation and preserved at −80° C.
The E. coli was suspended in Lysis buffer (20 mM HEPES (pH 7.5), 5 mM DTT, 10 mM CHAPS, 10% glycerol) containing 1M sodium chloride and subjected to repeat pressurization and depressurization for rupture, and centrifugal separation at 4° C., 40,000×g, 60 min to recover a water-soluble fraction (supernatant). This was diluted 10-fold with Lysis buffer free of sodium chloride, mixed with SP-Sepharose (Pharmacia Corporation) and stirred at 4° C. for 60 min to allow adsorption of integrase protein to the resin. The resin was washed with Lysis buffer containing 100 mM sodium chloride and the integrase protein was eluted with Lysis buffer containing 1M sodium chloride.
The eluted integrase protein solution was applied to a Superdex 75 (Pharmacia Corporation) column for gel filtration. The protein was eluted with Lysis buffer containing 1M sodium chloride.
The obtained fractions of the integrate protein were collected and preserved at −80° C.
(iii) Preparation of DNA Solution
The following DNA synthesized by Greiner was dissolved in TE buffer (10 mM Tris-hydrochloric acid (pH 8.0), 1 mM EDTA) and mixed with donor DNA, target DNA, each complementary strand (+ and − strands) to 1 μM. The mixture was heated at 95° C. for 5 min, 80° C. for 10 min, 70° C. for 10 min, 60° C. for 10 min, 50° C. for 10 min and 40° C. for 10 min and preserved at 25° C. to give a double stranded DNA, which was used for the test. Donor DNA (− strand having biotin attached to the 5′ terminal)
(iv) Determination of Enzyme (HIV Integrase) Inhibitory activity
The donor DNA was diluted with TE buffer to 10 nM, of which 50 μl was added to each well of streptavidin-coated microtiter plate (Roche) and allowed to adsorb at 37° C. for 60 min. The DNA was washed with phosphate buffer (Dulbecco PBS, Sanko Junyaku Co., Ltd.) containing 0.1% Tween 20 and phosphate buffer. Then, a reaction mixture (70 μl) having the following composition, a test substance (10 μl) diluted with the reaction mixture and […] integrase protein (10 μl) were added to each well and reacted at 37° C. for 60 min.
Then, 50 nM target DNA (1.0 μl) was added, reacted at 37° C. for 10 min and washed with phosphate buffer containing 0.1% Tween 20 to stop the reaction.
Then, 100 mU/ml peroxidase labeled anti-digoxigenin antibody solution (Roche, 100 μl) was added, and the mixture was reacted at 37° C. for 60 min, followed by washing with phosphate buffer containing 0.1% Tween 20.
A peroxidase color solution (Bio Rad, 100 μl) was added and allowed to react at room temperature for 4 min. The color reaction was stopped by adding 1N sulfuric acid (100 μl). The absorbance at 450 nm was measured.
The HIV integrase inhibitory activity (IC50) of the compound of the present invention was calculated from the inhibition rate according to the following formula. […] Evaluation of Antiviral Activity

SMILES | pIC50
CN(C)n1cc(C(=O)O)c(=O)c2cc(Cc3cccc(Cl)c3Cl)ccc21 [Example 2-6, 6-(2,3-Dichlorobenzyl)-1-dimethylamino-4-oxo-1,4-dihydroquinoline-3-carboxylic acid] | 7.04
CN(C)/C=N/c1cc2c(cc1Cc1cccc(Cl)c1F)c(=O)c(C(=O)O)cn2CCO [Example 3-50, 6-(3-Chloro-2-fluorobenzyl)-7-(dimethylaminomethyleneamino)-1-(2-hydroxyethyl)-4-oxo-1,4-dihydroquinoline-3-carboxylic acid] | 7.74
CSCn1cc(C(=O)O)c(=O)c2cc(Cc3cccc(Cl)c3Cl)ccc21 [Example 1-68, 6-(2,3-Dichlorobenzyl)-1-methylsulfanylmethyl-4-oxo-1,4-dihydroquinoline-3-carboxylic acid] | 7.31
CCOc1cc2c(cc1Cc1cccc(Cl)c1Cl)c(=O)c(C(=O)O)cn2CCO [Example 3-20, 6-(2,3-Dichlorobenzyl)-7-ethoxy-1-(2-hydroxyethyl)-4-oxo-1,4-dihydroquinoline-3-carboxylic acid] | 8.00
O=C(O)c1cn(CCO)c2cc(OCCCO)c(Cc3cccc(Cl)c3F)cc2c1=O [Example 3-77, 6-(3-Chloro-2-fluorobenzyl)-1-(2-hydroxyethyl)-1-7-(3-hydroxypropyloxy)-4-oxo-1,4-dihydroquinoline-3-carboxylic acid] | 8.05
NCCn1cc(C(=O)O)c(=O)c2cc(Cc3cccc(Cl)c3Cl)ccc21 [Example 1-46, 1-(2-Aminoethyl)-6-(2,3-dichlorobenzyl)-4-oxo-1,4-dihydroquinoline-3-carboxylic acid] | 6.38
CCOc1cc(Cc2cccc(Cl)c2F)cc2c(=O)c(C(=O)O)cn(CCO)c12 [Example 3-47, 6-(3-Chloro-2-fluorobenzyl)-8-ethoxy-1-(2-hydroxyethyl)-4-oxo-1,4-dihydroquinoline-3-carboxylic acid] | 8.07
CNc1cc(Cc2cccc(Cl)c2F)cc2c(=O)c(C(=O)O)cn(CCO)c12 [Example 3-48, 6-(3-Chloro-2-fluorobenzyl)-1-(2-hydroxyethyl)-8-methylamino-4-oxo-1,4-dihydroquinoline-3-carboxylic acid] | 7.68
CCCNc1cc(Cc2cccc(Cl)c2F)cc2c(=O)c(C(=O)O)cn(CCO)c12 [Example 3-54, 6-(3-Chloro-2-fluorobenzyl)-1-(2-hydroxyethyl)-4-oxo-8-propylamino-1,4-dihydroquinoline-3-carboxylic acid] | 8.19
Cc1ncsc1CCn1cc(C(=O)O)c(=O)c2cc(Cc3cccc(Cl)c3Cl)ccc21 [Example 1-29, 6-(2,3-Dichlorobenzyl)-1-[2-(4-methylthiazol-5-yl)ethyl]-4-oxo-1,4-dihydroquinoline-3-carboxylic acid] | 6.62
COc1cc2c(cc1Cc1cccc(Cl)c1F)c(=O)c(C(=O)O)cn2CCO [Example 3-4, 6-(3-Chloro-2-fluorobenzyl)-1-(2-hydroxyethyl)-7-methoxy-4-oxo-1,4-dihydroquinoline-3-carboxylic acid] | 7.96
C[C@H](CO)n1cc(C(=O)O)c(=O)c2cc(Cc3cccc(Cl)c3F)ccc21 [Example 3-24, (R)-6-(3-Chloro-2-fluorobenzyl)-1-(2-hydroxy-1-methylethyl)-4-oxo-1,4-dihydroquinoline-3-carboxylic acid] | 7.41
COc1cc(Cc2cccc(Cl)c2F)cc2c(=O)c(C(=O)O)cn([C@H](CO)C(C)(C)C)c12 [Example 4-34, (S)-6-(3-Chloro-2-fluorobenzyl)-1-[2,2-dimethyl-1-(hydroxymethyl)propyl]-8-methoxy-4-oxo-1,4-dihydroquinoline-3-carboxylic acid] | 8.41
NS(=O)(=O)Cn1cc(C(=O)O)c(=O)c2cc(Cc3cccc(Cl)c3Cl)ccc21 [Example 1-9, 6-(2,3-Dichlorobenzyl)-4-oxo-1-sulfamoylmethyl-1,4-dihydroquinoline-3-carboxylic acid] | 7.77
CSc1ccc(Cl)c(Cc2ccc3c(c2)c(=O)c(C(=O)O)cn3CCO)c1 [Example 1-92, 6-(2-Chloro-5-methylsulfanylbenzyl)-1-(2-hydroxyethyl)-4-oxo-1,4-dihydroquinoline-3-carboxylic acid] | 6.55
O=C(O)c1cn(-c2ccccc2)c2ccc(Cc3cccc(Cl)c3Cl)cc2c1=O [Example 3-9, 6-(2,3-Dichlorobenzyl)-4-oxo-1-phenyl-1,4-dihydroquinoline-3-carboxylic acid] | 7.08
COC(=O)c1cn(CCO)c2ccc(Cc3cccc(Cl)c3Cl)cc2c1=O [Example 1-12, 6-(2,3-Dichlorobenzyl)-1-(2-hydroxyethyl)-4-oxo-1,4-dihydroquinoline-3-carboxylic acid methyl ester] | 6.15
CC(C)Oc1cc(Cc2cccc(Cl)c2F)cc2c(=O)c(C(=O)O)cn([C@H](CO)C(C)(C)C)c12 [Example 4-26, (S)-6-(3-Chloro-2-fluorobenzyl)-[2,2-dimethyl-1-(hydroxymethyl)propyl]-8-isopropyloxy-4-oxo-1,4-dihydroquinoline-3-carboxylic acid] | 8.82
CC(=O)Nn1cc(C(=O)O)c(=O)c2cc(Cc3cccc(Cl)c3Cl)ccc21 [Example 2-3, 1-Acetylamino-6-(2,3-dichlorobenzyl)-4-oxo-1,4-dihydroquinoline-3-carboxylic acid] | 6.96
CCOc1cc(Cc2cccc(Cl)c2F)cc2c(=O)c(C(=O)O)cn([C@@H](C)CO)c12 [Example 3-67, (S)-6-(3-Chloro-2-fluorobenzyl)-8-ethoxy-1-(2-hydroxy-1-methylethyl)-4-oxo-1,4-dihydroquinoline-3-carboxylic acid] | 8.19
O=C(O)c1cn(Cc2ccccc2-c2ccccc2)c2ccc(Cc3cccc(Cl)c3Cl)cc2c1=O [Example 1-20, 1-Biphenyl-2-ylmethyl-6-(2,3-dichlorobenzyl)-4-oxo-1,4-dihydroquinoline-3-carboxylic acid] | 6.16
CC(C)Oc1cc2c(cc1Cc1cccc(Cl)c1F)c(=O)c(C(=O)O)cn2[C@H](CO)C(C)(C)C [Example 4-20, (S)-6-(3-Chloro-2-fluorobenzyl)-1-[2,2-dimethyl-1-(hydroxymethyl)propyl]-7-isopropyloxy-4-oxo-1,4-dihydroquinoline-3-carboxylic acid] | 8.77
CCNn1cc(C(=O)O)c(=O)c2cc(Cc3cccc(Cl)c3Cl)ccc21 [Example 2-8, 6-(2,3-Dichlorobenzyl)-1-ethylamino-4-oxo-1,4-dihydroquinoline-3-carboxylic acid] | 7.07
O=C(O)c1cn(CCO)c2ccc(Cc3cccc4ccccc34)cc2c1=O [Example 1-11, 1-(2-Hydroxyethyl)-6-naphthalen-1-ylmethyl-4-oxo-1,4-dihydroquinoline-3-carboxylic acid] | 6.74
O=C(O)c1cn(CCO)c2ccc(Cc3ccccc3Br)cc2c1=O [Example 1-80, 6-(2-Bromobenzyl)-1-(2-hydroxyethyl)-4-oxo-1,4-dihydroquinoline-3-carboxylic acid] | 6.46
CN(C)S(=O)(=O)Cn1cc(C(=O)O)c(=O)c2cc(Cc3c(F)cccc3Cl)ccc21 [Example 1-77, 6-(2-Chloro-6-fluorobenzyl)-1-dimethylsulfamoylmethyl-4-oxo-1,4-dihydroquinoline-3-carboxylic acid] | 7.20
CC(=O)NCCn1cc(C(=O)O)c(=O)c2cc(Cc3cccc(Cl)c3Cl)ccc21 [Example 1-48, 1-(2-Acetylaminoethyl)-6-(2,3-dichlorobenzyl)-4-oxo-1,4-dihydroquinoline-3-carboxylic acid] | 6.42
